How the values were obtained:
[1] = system: sAML LSC, MF HPC, normal HSPC; experiment: Clonogenic survival and replating (self-renewal) assays in stromal co-culture; assay type: cell-based, human
Excerpt: (FIG. 28D, FIG. 28E) Quantification of colony formation (survival, FIG. 28D) and replating (self-renewal, FIG. 28E) of high-risk MF HPC and sAML LSC compared with cord blood (CB) and aged versus young normal bone marrow (a-NBM, y-NBM) controls treated with Rebecsinib at increasing concentrations. Bar graphs show data as mean±SEM and statistical analyses by pairwise t-test and dose-response assays show data as mean±SD and statistical analyses by one-way ANOVA.
(§1) Primary patient samples and normal bone marrow controls used for functional assays are described in Table 1. Human HS5 and HS27a^45 or mouse bone marrow cells lines SL (hSCF and hIL3) and M2 (hIL3 and hG-CSF) were irradiated and then mixed at a ratio of 1:1 and incubated overnight for attachment. […] After 2 weeks primary colonies (more than 40 cells) were counted and individual multilineage colonies were plucked, cells resuspended, and re-plated again in fresh MC. Secondary colonies were counted after another 14 days. […]
as §1, with “Human” for “Primary patient samples and normal bone marrow controls used for functional assays are described in Table 1. Human”, “resuspended” for “resuspended,”

[2] = system: MCL1 and SF3B3 transcripts; experiment: Pharmacodynamic splice isoform qRT-PCR in PBMCs from treated NHPs; assay type: in vivo, cynomolgus monkeys
Protocol: Pharmacodynamic studies were conducted on peripheral blood mononuclear cells (PBMCs) isolated from NHPs treated with escalating doses of Rebecsinib (3 mg/kg, 10 mg/kg, 15 mg/kg or 20 mg/kg) or a vehicle control and collected at 30 minute and 4 hours post-dose.
(FIG. 29G, FIG. 29H) For in vivo TK and complementary pharmacodynamic studies, NHPs were given a single injection of Rebecsinib at 3-20 mg/kg, or vehicle control, and blood samples were drawn at regular intervals to determine plasma concentrations (FIG. 29G) of the compound along with splice isoform biomarker assays to quantify MCL1 exon skipping in PBMCs isolated from treated animals (FIG. 29H, n=2 animals per group).
For quantitative analysis of splice isoform expression, RNA editing rates, and whole gene expression by qRT-PCR, cells or tissue fragments were harvested in RNA lysis buffer and total RNA was extracted using RNeasy mini or micro extraction kits (QIAGEN, Germantown, MD) following the manufacturer's protocol including a DNase incubation step to digest any trace genomic DNA present. Levels of ADAR1 variants and LSC-specific transcripts were quantified by qRT-PCR as previously described.^14 RNA-editing site-specific qRT-PCR (RESSqPCR) was performed for variants in AZIN1 transcripts.^53 Additional species-specific primers were also designed to quantify intron retention rates in cells treated with Rebecsinib as a biomarker of response to RNA splicing modulation. Specifically, for the two-step SYBR-green based assays, as previously described,^7,14,53 100-1000 ng of RNA were subjected to cDNA synthesis using the SUPERSCRIPT III™ (ThermoFisher Scientific) kit followed by qRT-PCR using SYBR GreenER (ThermoFisher Scientific) master mix according to the manufacturer's recommended procedures. qRT-PCR was performed using SYBR GREENER SUPER MIX™ (Life Technologies) on BioRad iQ5™, C1000 TOUCH™, or BioRad CFX384™ instruments. Human splice isoform-specific, RNA editing site-specific qPCR (RESSqPCR)^53. Primer sets that have not been previously published were designed and tested for efficiency followed by analyses in samples exposed to Rebecsinib, with species-specific HPRT primers used as controls. Samples with Ct<35 for the species-specific reference gene, HPRT, were included in analyses. Relative mRNA expression values were calculated using the 2^−ΔCT method, with normalization to untreated or vehicle-treated controls.^54

Structure (SMILES): CC[C@H](OC)[C@@H](C)[C@H]1O[C@@H]1[C@@H](O)[C@H](C)/C=C/C=C(\C)[C@H]1OC(=O)C[C@H](O)CC[C@@](C)(O)[C@@H](OC(C)=O)/C=C/[C@@H]1C [Rebecsinib]
- effect on normal HSPC and mature hematopoietic progeny ([1]; 1 μM, compared with DMSO (vehicle)): no significant differences
- clonogenic survival and replating (self-renewal) sensitivity ([1]; sAML LSC vs MF HPC or normal cord blood, young or aged bone marrow HPCs): greater sensitivity of secondary AML (sAML) LSC
- MCL1 exon skipping in PBMCs ([2]; NHP, 3, 10, 15 or 20 mg/kg, 30 minute and 4 hours post-dose): on-target splicing modulation typified by MCL1 exon skipping
- splicing modulation ([2]; NHP, PD analyses): predictable, dose-dependent splicing modulation
- SF3B3 intron retention in PBMCs, 4 hours ([2]; NHP, single doses of 3, 10, 15 or 20 mg/kg): detectable at 4 hours
- SF3B3 intron retention in PBMCs, 30 min ([2]; NHP, single doses of 3, 10, 15 or 20 mg/kg, compared with vehicle): increased at 30 min

Source: patent US20260364072A1, “METHODS FOR PROMOTING EXPANSION OF HUMAN CD34+ CELLS IN VIVO AND FOR PROMOTING NEURAL REGENERATION” (THE REGENTS OF THE UNIVERSITY OF CALIFORNIA, priority 2023, published 2026)
